For 23 compounds, IC50 results are on record in patent US12643881B2, “Bicyclic amine CDK12 inhibitors” (Incyte Corporation, priority 2021, dated 2026).

As usually defined, the IC50 is the point on the concentration scale where inhibition reaches its midpoint.

In this experiment the target is T1, CDK12 complexed with Cyclin K (Homo sapiens, UniProt Q9NYV4).
T1 construct: GST (N)
T1 sequence (Q9NYV4 whole entry): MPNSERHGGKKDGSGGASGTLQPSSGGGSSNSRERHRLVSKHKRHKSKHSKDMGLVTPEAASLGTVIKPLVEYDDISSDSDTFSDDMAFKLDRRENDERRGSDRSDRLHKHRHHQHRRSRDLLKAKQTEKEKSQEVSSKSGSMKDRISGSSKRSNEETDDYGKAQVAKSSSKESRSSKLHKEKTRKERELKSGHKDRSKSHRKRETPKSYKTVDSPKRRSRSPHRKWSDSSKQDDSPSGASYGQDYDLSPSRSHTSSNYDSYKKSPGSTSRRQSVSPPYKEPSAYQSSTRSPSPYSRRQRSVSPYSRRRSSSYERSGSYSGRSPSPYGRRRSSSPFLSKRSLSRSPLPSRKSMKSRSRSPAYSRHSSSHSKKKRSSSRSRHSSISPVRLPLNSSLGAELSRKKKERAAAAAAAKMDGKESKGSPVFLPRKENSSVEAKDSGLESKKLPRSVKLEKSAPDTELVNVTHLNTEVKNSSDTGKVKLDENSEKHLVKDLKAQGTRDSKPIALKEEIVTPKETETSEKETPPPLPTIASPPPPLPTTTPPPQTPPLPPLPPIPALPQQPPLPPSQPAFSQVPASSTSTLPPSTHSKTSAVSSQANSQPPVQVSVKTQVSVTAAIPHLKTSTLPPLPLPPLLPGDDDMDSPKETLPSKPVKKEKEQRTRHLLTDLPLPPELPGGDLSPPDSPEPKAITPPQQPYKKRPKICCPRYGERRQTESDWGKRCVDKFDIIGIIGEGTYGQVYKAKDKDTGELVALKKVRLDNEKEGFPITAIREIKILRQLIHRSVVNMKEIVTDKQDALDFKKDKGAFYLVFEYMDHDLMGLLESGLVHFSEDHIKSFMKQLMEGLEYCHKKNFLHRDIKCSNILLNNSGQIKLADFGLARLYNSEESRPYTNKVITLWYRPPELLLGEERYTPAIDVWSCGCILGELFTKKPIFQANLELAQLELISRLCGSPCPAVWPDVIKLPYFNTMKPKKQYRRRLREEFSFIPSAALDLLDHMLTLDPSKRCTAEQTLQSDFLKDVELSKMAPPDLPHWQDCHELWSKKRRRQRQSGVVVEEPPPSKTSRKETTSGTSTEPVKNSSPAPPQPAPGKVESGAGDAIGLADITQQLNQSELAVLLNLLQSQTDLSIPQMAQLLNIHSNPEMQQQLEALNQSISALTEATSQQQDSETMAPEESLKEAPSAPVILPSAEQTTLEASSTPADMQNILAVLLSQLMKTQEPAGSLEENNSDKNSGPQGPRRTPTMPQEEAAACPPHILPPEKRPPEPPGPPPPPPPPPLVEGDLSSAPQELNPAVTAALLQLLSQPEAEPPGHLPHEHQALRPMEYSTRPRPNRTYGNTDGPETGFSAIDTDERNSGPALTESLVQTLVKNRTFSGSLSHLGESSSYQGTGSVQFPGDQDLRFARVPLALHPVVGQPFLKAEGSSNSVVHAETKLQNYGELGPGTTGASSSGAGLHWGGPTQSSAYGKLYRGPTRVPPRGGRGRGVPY
T1 sequence (O75909 whole entry partner): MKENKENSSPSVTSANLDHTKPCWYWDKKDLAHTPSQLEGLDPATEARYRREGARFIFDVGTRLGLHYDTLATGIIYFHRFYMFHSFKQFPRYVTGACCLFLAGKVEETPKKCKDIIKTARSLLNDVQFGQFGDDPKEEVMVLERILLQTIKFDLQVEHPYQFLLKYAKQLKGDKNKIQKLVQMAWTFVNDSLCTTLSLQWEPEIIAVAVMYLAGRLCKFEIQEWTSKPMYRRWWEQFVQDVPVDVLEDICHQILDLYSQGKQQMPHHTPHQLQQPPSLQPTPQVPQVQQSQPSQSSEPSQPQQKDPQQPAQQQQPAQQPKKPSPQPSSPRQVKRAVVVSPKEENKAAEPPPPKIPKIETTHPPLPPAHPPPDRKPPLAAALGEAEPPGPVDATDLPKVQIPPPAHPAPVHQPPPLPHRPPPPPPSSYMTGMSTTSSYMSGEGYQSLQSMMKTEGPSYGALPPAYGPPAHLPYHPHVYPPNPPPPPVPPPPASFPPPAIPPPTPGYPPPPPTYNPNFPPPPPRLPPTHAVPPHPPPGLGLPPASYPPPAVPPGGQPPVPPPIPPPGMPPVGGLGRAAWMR
The experiment can be described thus: Alternative CDK Enzymatic Assays (HTRF, pre-incubation with compounds and 1 mM ATP), Example A2. The note with it: enzyme pre-incubated with compounds and 1 mM ATP for 60 minutes; reaction 120 minutes at 25° C. The format is biochemical. From the text:
Example A2. Alternative CDK Enzymatic Assays
The following activity of the CDK enzymes in complex with their respective cyclins we assayed: CDK1 complexed with Cyclin B1; CDK2 complexed with Cyclin E1; CDK4 complexed with Cyclin D1; CDK6 complexed with Cyclin D1; CDK6 complexed with Cyclin D3; CDK9 complexed with Cyclin T1; CDK7 complexed with Cyclin H/MAT1; CDK2 complexed with Cyclin A2; CDK5 complexed with p35; CDK12 complexed with Cyclin K; CDK13 complexed with Cyclin K. These in vitro enzyme activity are assayed using homogeneous time-resolved energy transfer (HTRF), which measures phosphorylation of a peptide substrate. The LANCER Ultra kinase assay (PerkinElmer) uses a ULight™-labeled EIF4E-binding protein 1 (THR37/46) peptide (DYSTTPGGTLFSTTPGTRI (SEQ ID NO: 1)) substrate and a Europium-labeled anti-phospho-4E-BP1 antibody (CDK2, CDK1, CDK4, CDK6, CDK9, CDK12, CDK13) or ULight™-labeled Myelin Basic Protein peptide (VTPRTPPP (SEQ ID NO: 2)) substrate and a Europium-labeled anti-phospho-MBP antibody (CDK7). Each CDK enzyme activity assays utilized human CDK co-expressed as N-terminal GST-tagged protein with its full length cyclin partner using a baculovirus expression system.
Enzyme was pre-incubated with compounds and 1 mM ATP for 60 minutes (CDK 1, 2, 4, 6, 9, 7, 12, 13) prior to the addition of ATP and Ulight-peptide (1 mM and 50 nM final, respectively), in assay buffer containing 50 mM HEPES pH 7.5, 1 mM EGTA, 10 mM MgCl2, 2 mM DTT, 0.05 mg/mL BSA, and 0.01% Tween 20. The reaction was then incubated for 120 minutes at 25° C. incubator. The reactions were stopped by the addition of EDTA and Europium labeled antibody, for a final concentration of 15 mM and 0.5-1.5 nM, respectively. HTRF signals were read after 15-120 minutes. A ratio of fluorescence transferred to the labeled substrate (665 nm) relative to fluorescence of the Europium donor (620 nm) represents the extent of phosphorylation. Ratios for treated wells were normalized to DMSO only (100% activity) and no enzyme (0% activity) controls. Normalized data was analyzed using a three or four parameter dose response curve to determine IC50 for each compound and are shown in Table B. Control reference inhibitors were included on each plate.
Background: Time-resolved FRET reads energy transfer from a long-lived donor to a nearby acceptor.
Take `C=CC(=O)Nc1ccc2c(c1)nc(N1C[C@H](O)C[C@@H](Nc3ncc(C#N)cn3)C1)n2C` [Example 122, N-(2-((3R,5R)-3-((5-Cyanopyrimidin-2-yl)amino)-5-hydroxypiperidin-1-yl)-1-methyl-1H-benzo[d]imidazol-5-yl)acrylamide]: the IC50 was under 50 nM.

For the compound `C=CC(=O)Nc1cc2nc(N3CC[C@@H](O)[C@@H](Nc4ncc(C(F)(F)F)cn4)C3)n(C)c2cc1C` [Example 148, N-(2-((3S,4R)-4-Hydroxy-3-((5-(trifluoromethyl)pyrimidin-2-yl)amino)piperidin-1-yl)-1,6-dimethyl-1H-benzo[d]imidazol-5-yl)acrylamide], the IC50 was over 500 nM. With `C=CC(=O)Nc1cc2nc(N3C[C@H](F)C[C@@H](Nc4ncc(C(F)(F)F)cn4)C3)n(C)c2cc1CC` [Example 131, N-(6-Ethyl-2-((3R,5R)-3-fluoro-5-((5-(trifluoromethyl)pyrimidin-2-yl)amino)piperidin-1-yl)-1-methyl-1H-benzo[d]imidazol-5-yl)acrylamide], the IC50 was 50 to 500 nM. In the case of `C=CC(=O)Nc1cc2nc(N3CCC[C@@H](Nc4ncc(C(F)(F)F)cn4)C3)n(C)c2cc1C1CC1` [Example 150, (R)—N-(6-Cyclopropyl-1-methyl-2-(3-((5-(trifluoromethyl)pyrimidin-2-yl)amino)piperidin-1-yl)-1H-benzo[d]imidazol-5-yl)acrylamide], the IC50 was under 50 nM.

As for `C=CC(=O)Nc1cc2nc(N3CCC[C@@H](Nc4ncc(C(F)(F)F)cn4)C3)n(C)c2cc1C(C)C` [Example 154, (R)—N-(6-Isopropyl-1-methyl-2-(3-((5-(trifluoromethyl)pyrimidin-2-yl)amino)piperidin-1-yl)-1H-benzo[d]imidazol-5-yl)acrylamide], the IC50 is under 50 nM. In the case of `C=CC(=O)Nc1cc2nc(N3C[C@H](F)C[C@@H](Nc4ncc(C(F)(F)F)cn4)C3)n(C)c2cc1Br` [Example 141, N-(6-Bromo-2-((3R,5R)-3-fluoro-5-((5-(trifluoromethyl)pyrimidin-2-yl)amino)piperidin-1-yl)-1-methyl-1H-benzo[d]imidazol-5-yl)acrylamide], the IC50 is under 50 nM. As to `Cc1cc2c(cc1NC(=O)/C=C/CN1CCCCC1)nc(N1C[C@H](F)C[C@@H](Nc3ncc(C(F)(F)F)cn3)C1)n2C` [Example 118, (E)-N-(2-((3R,5R)-3-Fluoro-5-((5-(trifluoromethyl)pyrimidin-2-yl)amino)piperidin-1-yl)-1,6-dimethyl-1H-benzo[d]imidazol-5-yl)-4-(piperidin-1-yl)but-2-enamide], the IC50 is over 500 nM. Consider `C=CC(=O)Nc1cc2nc(N3CCC[C@@H](Nc4ncc(C(F)(F)F)cn4)C3)n(C)c2cc1OC` [Example 166, (R)—N-(6-Methoxy-1-methyl-2-(3-((5-(trifluoromethyl)pyrimidin-2-yl)amino)piperidin-1-yl)-1H-benzo[d]imidazol-5-yl)acrylamide], for which the IC50 was under 50 nM. The value for `Cc1cc2c(cc1NC(=O)C#CCO)nc(N1C[C@H](F)C[C@@H](Nc3ncc(C(F)(F)F)cn3)C1)n2C` [Example 115, N-(2-((3R,5R)-3-Fluoro-5-((5-(trifluoromethyl)pyrimidin-2-yl)amino)piperidin-1-yl)-1,6-dimethyl-1H-benzo[d]imidazol-5-yl)-4-hydroxybut-2-ynamide] was under 50 nM; that for `C=CC(=O)Nc1cc2nc(N3C[C@H](F)C[C@@H](Nc4ccc(C#N)cn4)C3)n(C)c2cc1C` [Example 163, N-(2-((3R,5R)-3-((5-Cyanopyridin-2-yl)amino)-5-fluoropiperidin-1-yl)-1,6-dimethyl-1H-benzo[d]imidazol-5-yl)acrylamide] was 50 to 500 nM; that for `C=CC(=O)N1CCCCC1c1ccc2c(c1)nc(N1C[C@H](O)C[C@@H](Nc3ncc(C(F)(F)F)cn3)C1)n2C` (stereo partly drawn) [Example 87, 1-(2-(2-((3R,5R)-3-Hydroxy-5-((5-(trifluoromethyl)pyrimidin-2-yl)amino)piperidin-1-yl)-1-methyl-1H-benzo[d]imidazol-5-yl)piperidin-1-yl)prop-2-en-1-one] was 50 to 500 nM. On to `C=CC(=O)Nc1cc2nc(N3C[C@H](F)C[C@@H](Nc4ncc(C#N)c(N(C)C)n4)C3)n(C)c2cc1C` [Example 157, N-(2-((3R,5R)-3-((5-Cyano-4-(dimethylamino)pyrimidin-2-yl)amino)-5-fluoropiperidin-1-yl)-1,6-dimethyl-1H-benzo[d]imidazol-5-yl)acrylamide], for which the IC50 lay in the range of 50 to 500 nM.

For `C=CC(=O)Nc1ccc2c(c1)nc(N1CCC[C@@H](Nc3cc(OC)c(C#N)cn3)C1)n2C` [Example 151, (R)—N-(2-(3-((5-Cyano-4-methoxypyridin-2-yl)amino)piperidin-1-yl)-1-methyl-1H-benzo[d]imidazol-5-yl)acrylamide], the IC50 is under 50 nM.

In the case of `COCC#CC(=O)Nc1cc2nc(N3C[C@H](F)C[C@@H](Nc4ncc(C(F)(F)F)cn4)C3)n(C)c2cc1C` [Example 114, N-(2-((3R,5R)-3-Fluoro-5-((5-(trifluoromethyl)pyrimidin-2-yl)amino)piperidin-1-yl)-1,6-dimethyl-1H-benzo[d]imidazol-5-yl)-4-methoxybut-2-ynamide], the IC50 is under 50 nM. Consider `C=CC(=O)Nc1cc2nc(N3C[C@H](Nc4ncc(C(F)(F)F)cn4)C[C@@H](OC)C3)n(C)c2cc1C` [Example 111, N-(2-((3R,5R)-3-Methoxy-5-((5-(trifluoromethyl)pyrimidin-2-yl)amino)piperidin-1-yl)-1,6-dimethyl-1H-benzo[d]imidazol-5-yl)acrylamide], for which the IC50 was 50 to 500 nM. The value for `C=CC(=O)N1[C@H](C)CN(c2nccn3c(N4C[C@H](F)C[C@@H](Nc5ncc(C(F)(F)F)cn5)C4)ncc23)C[C@@H]1C` [Example 104, 1-((2S,6R)-4-(3-((3R,5R)-3-Fluoro-5-((5-(trifluoromethyl)pyrimidin-2-yl)amino)piperidin-1-yl)imidazo[1,5-a]pyrazin-8-yl)-2,6-dimethylpiperazin-1-yl)prop-2-en-1-one] was 50 to 500 nM; that for `C=CC(=O)N1CCC(c2nccn3c(N4CCC[C@@H](Nc5ncc(C(F)(F)F)cn5)C4)ncc23)CC1` [Example 110, (R)-1-(4-(3-(3-((5-(Trifluoromethyl)pyrimidin-2-yl)amino)piperidin-1-yl)imidazo[1,5-a]pyrazin-8-yl)piperidin-1-yl)prop-2-en-1-one] was 50 to 500 nM. Take `C=CC(=O)Nc1cc2nc(N3C[C@H](F)C[C@@H](Nc4ncc(C(F)(F)F)cn4)C3)n(C)c2cc1Cl` [Example 134, N-(6-Chloro-2-((3R,5R)-3-fluoro-5-((5-(trifluoromethyl)pyrimidin-2-yl)amino)piperidin-1-yl)-1-methyl-1H-benzo[d]imidazol-5-yl)acrylamide]: the IC50 is under 50 nM. The figure for `CC#CC(=O)Nc1cc2nc(N3C[C@H](F)C[C@@H](Nc4ncc(C(F)(F)F)cn4)C3)n(C)c2cc1C` [Example 116, N-(2-((3R,5R)-3-Fluoro-5-((5-(trifluoromethyl)pyrimidin-2-yl)amino)piperidin-1-yl)-1,6-dimethyl-1H-benzo[d]imidazol-5-yl)but-2-ynamide] is 50 to 500 nM; for `C=CC(=O)Nc1cc2nc(N3C[C@H](F)C[C@@H](Nc4ncc(C(F)(F)F)cn4)C3)n(C)c2cc1C(=O)N1CCOCC1` [Example 137, N-(2-((3R,5R)-3-Fluoro-5-((5-(trifluoromethyl)pyrimidin-2-yl)amino)piperidin-1-yl)-1-methyl-6-(morpholine-4-carbonyl)-1H-benzo[d]imidazol-5-yl)acrylamide] it is 50 to 500 nM. Take `C=CC(=O)Nc1cc2nc(N3C[C@H](O)C[C@@H](Nc4ncc(C#N)cn4)C3)n(C)c2cc1C` [Example 147, N-(2-((3R,5R)-3-((5-Cyanopyrimidin-2-yl)amino)-5-hydroxypiperidin-1-yl)-1,6-dimethyl-1H-benzo[d]imidazol-5-yl)acrylamide]: the half-inhibitory concentration (IC50) lay within 50 to 500 nM. `CC#CC(=O)N1C[C@@H]2C[C@H]1CN2c1nccn2c(N3C[C@H](F)C[C@@H](Nc4ncc(C(F)(F)F)cn4)C3)ncc12` [Example 106, 1-((1S,4S)-5-(3-((3R,5R)-3-Fluoro-5-((5-(trifluoromethyl)pyrimidin-2-yl)amino)piperidin-1-yl)imidazo[1,5-a]pyrazin-8-yl)-2,5-diazabicyclo[2.2.1]heptan-2-yl)but-2-yn-1-one]: the IC50 fell in the range of 50 to 500 nM. In the case of `C=CC(=O)N1CCC12CN(c1nccn3c(N4C[C@H](F)C[C@@H](Nc5ncc(C(F)(F)F)cn5)C4)ncc13)C2` [Example 105, 1-(6-(3-((3R,5R)-3-Fluoro-5-((5-(trifluoromethyl)pyrimidin-2-yl)amino)piperidin-1-yl)imidazo[1,5-a]pyrazin-8-yl)-1,6-diazaspiro[3.3]heptan-1-yl)prop-2-en-1-one], the IC50 is under 50 nM.
